The record followed here is ChEMBL document CHEMBL1201862, “PubChem BioAssay data set” (2004).

Broadly, the IC50 is the concentration that inhibits the measured activity by half. In general, AC50 refers to the concentration giving half of the maximal activity seen. Usually EC50 stands for the concentration needed to bring the measured effect to its halfway point.

Active and inactive are the calls of the source. Bounds are passed on as bounds.

The target of one series is Phospholipase A2 (Homo sapiens, UniProt P04054). In kind it is functional.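 Note: confirmatory dose-response counterscreen on phospholipase A2, testing hits that came from an ultra-high-throughput screen for ATG4B inhibitors.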
Sequence of Phospholipase A2 (P04054 whole entry): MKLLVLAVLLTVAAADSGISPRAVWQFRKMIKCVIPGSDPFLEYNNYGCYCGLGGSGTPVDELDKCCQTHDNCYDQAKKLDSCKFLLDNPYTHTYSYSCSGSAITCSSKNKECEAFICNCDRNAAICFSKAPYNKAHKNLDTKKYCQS
A further series deals with T1, Caspase-3 (Homo sapiens, UniProt P42574).
T1 sequence (P42574 whole entry): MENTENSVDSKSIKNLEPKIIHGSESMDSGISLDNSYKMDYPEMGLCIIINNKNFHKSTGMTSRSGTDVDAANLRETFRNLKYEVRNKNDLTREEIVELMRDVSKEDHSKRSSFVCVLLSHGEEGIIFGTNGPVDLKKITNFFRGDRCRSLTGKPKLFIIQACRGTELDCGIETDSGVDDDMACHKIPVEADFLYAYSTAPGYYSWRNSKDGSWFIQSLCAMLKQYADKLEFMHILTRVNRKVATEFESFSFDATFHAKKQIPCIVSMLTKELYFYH
In kind it is functional.

Series [1] addresses T2, Sentrin-specific protease 6 (Homo sapiens, UniProt Q9GZR1).
T2 sequence (Q9GZR1 whole entry): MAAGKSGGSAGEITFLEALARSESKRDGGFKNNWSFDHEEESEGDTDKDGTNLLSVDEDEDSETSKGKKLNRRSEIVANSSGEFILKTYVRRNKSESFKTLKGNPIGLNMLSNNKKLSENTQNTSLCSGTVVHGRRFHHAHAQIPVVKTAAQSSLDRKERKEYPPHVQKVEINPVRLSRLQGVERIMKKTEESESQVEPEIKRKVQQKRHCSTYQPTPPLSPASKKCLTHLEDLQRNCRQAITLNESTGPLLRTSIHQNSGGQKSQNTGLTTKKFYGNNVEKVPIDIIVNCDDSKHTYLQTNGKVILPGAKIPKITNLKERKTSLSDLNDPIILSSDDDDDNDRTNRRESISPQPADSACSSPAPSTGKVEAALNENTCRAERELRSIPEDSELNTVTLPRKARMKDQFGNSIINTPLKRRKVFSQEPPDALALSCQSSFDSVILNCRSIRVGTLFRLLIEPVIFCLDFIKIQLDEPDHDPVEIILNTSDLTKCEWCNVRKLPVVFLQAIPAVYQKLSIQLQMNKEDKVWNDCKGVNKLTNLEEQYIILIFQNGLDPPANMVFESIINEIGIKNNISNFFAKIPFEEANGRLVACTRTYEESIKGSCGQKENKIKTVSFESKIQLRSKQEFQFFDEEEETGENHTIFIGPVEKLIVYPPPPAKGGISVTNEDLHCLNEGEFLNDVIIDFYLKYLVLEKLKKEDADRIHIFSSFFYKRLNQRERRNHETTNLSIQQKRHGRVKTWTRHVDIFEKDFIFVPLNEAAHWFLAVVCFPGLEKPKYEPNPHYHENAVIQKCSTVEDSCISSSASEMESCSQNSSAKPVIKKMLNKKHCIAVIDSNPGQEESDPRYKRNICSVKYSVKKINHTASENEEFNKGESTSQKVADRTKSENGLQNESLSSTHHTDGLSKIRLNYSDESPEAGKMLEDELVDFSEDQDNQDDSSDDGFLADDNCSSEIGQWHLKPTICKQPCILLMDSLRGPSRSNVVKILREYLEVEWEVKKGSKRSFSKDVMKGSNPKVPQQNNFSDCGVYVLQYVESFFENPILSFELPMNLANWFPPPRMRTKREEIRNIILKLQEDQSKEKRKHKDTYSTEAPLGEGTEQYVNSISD
In kind it is functional.

In series [2] the target is T3, Sentrin-specific protease 8 (Homo sapiens, UniProt Q96LD8).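 Note: luminescence read-out of SENP8 inhibition, dose-response confirmation following an ultra-high-throughput screen.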
T3 sequence (Q96LD8 whole entry): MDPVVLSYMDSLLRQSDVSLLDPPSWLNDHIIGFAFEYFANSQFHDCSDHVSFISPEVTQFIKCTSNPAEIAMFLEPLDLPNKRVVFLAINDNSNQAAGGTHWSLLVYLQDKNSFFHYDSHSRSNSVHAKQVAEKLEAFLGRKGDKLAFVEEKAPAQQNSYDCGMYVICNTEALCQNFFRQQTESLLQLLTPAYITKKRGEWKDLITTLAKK
Type of series: functional.

The target in series [3] is T4, Sentrin-specific protease 7 (Homo sapiens, UniProt Q9BQF6).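 Note: Luminescence-based dose-response confirmation of ultra-high-throughput screening hits, measuring inhibition of SENP7.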
T4 sequence (Q9BQF6 whole entry): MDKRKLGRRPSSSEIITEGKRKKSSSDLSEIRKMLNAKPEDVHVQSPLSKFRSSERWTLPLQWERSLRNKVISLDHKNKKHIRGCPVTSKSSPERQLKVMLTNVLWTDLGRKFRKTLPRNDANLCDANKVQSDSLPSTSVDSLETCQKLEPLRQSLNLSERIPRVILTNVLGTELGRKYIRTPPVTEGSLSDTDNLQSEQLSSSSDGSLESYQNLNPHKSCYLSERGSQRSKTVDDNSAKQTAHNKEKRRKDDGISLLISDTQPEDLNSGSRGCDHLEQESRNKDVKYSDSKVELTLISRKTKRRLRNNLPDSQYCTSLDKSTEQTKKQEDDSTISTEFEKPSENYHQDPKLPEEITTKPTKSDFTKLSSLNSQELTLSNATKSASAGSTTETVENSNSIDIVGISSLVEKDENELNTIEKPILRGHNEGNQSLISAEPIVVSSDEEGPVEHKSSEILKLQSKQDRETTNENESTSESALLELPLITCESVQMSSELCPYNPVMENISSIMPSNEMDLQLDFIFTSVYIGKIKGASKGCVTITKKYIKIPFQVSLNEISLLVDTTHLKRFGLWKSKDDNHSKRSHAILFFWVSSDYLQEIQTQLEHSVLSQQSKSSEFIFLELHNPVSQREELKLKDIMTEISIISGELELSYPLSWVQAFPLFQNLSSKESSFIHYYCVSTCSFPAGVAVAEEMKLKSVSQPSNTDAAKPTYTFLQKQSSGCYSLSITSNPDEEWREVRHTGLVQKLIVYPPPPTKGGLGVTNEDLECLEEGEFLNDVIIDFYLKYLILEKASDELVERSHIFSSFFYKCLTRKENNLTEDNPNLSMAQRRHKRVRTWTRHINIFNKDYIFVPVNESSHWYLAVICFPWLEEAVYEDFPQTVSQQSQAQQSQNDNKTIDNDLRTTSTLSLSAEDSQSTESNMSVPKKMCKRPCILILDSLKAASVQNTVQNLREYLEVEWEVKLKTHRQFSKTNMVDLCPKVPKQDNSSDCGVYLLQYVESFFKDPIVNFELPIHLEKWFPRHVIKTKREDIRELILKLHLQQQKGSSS
Type of series: functional.

Series [4] relates to Escherichia coli. The series is described as follows: microbe, parasite or virus in culture.
Series [5] has as its system Escherichia coli. The series can be described thus: microbe, parasite or virus in culture. This is another data set of the same source.
A further series deals with HEK293. The series can be described thus: EBV LMP1 TES2 canonical NF-kB signalling blockers – cell-based, HEK293, luciferase, cherry-pick, dose response (AID 588343). Type of series: functional, Homo sapiens.
Series [6] can be described thus: alpha-synuclein stem-loop luciferase translation blockers – H4 neuroglioma cells, luminescence, confirmation (AID 1988). In kind it is functional, cell-based.
The nature of series [7]: Luminescence Cell-Based Dose Response HTS to Identify Inhibitors of 5'UTR Stem-Loop Driven Prion Protein mRNA Translation in H4 Neuroglioblastoma Cells. [Related pubchem assays: 1827 (Project Summary), 1813 (Primary HTS)]. In kind it is functional.
The target in series [8] is T5, Latent membrane protein 1 (Human herpesvirus 4 (strain B95-8), UniProt P03230).
T5 sequence (P03230 whole entry): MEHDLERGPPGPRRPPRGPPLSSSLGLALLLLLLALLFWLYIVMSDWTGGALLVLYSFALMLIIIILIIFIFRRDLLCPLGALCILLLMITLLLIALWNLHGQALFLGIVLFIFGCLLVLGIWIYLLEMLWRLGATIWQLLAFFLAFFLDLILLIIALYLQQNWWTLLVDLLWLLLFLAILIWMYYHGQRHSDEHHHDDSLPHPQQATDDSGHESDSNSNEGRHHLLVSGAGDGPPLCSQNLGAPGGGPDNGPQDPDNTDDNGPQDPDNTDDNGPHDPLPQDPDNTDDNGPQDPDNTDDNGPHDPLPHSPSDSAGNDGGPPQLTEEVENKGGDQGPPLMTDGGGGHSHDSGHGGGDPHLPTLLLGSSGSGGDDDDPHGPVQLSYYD
The series is described as follows: LMP1 TES1 pathway selectivity over dsRED control – imaging, HEK293T, dual-color eGFP/dsRED, cherry-picks, selectivity assay for LMP1 NF-kB inhibitor project, dose response (AID 588398). In kind it is functional, cell-based.

Series [9] is described as follows: luciferase reporter signal suppression in cells – H4 neuroglioma cells, luminescence, dose response (AID 1990). Type of series: functional, cell-based. For orientation: A reporter such as luciferase makes a cellular process visible.
The next series concerns the target T6, Cytochrome P450 1A2 (Homo sapiens, UniProt P05177).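 Note: PubChem cytochrome P450 panel assay, CYP1A2 panel member.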
T6 sequence (P05177 whole entry): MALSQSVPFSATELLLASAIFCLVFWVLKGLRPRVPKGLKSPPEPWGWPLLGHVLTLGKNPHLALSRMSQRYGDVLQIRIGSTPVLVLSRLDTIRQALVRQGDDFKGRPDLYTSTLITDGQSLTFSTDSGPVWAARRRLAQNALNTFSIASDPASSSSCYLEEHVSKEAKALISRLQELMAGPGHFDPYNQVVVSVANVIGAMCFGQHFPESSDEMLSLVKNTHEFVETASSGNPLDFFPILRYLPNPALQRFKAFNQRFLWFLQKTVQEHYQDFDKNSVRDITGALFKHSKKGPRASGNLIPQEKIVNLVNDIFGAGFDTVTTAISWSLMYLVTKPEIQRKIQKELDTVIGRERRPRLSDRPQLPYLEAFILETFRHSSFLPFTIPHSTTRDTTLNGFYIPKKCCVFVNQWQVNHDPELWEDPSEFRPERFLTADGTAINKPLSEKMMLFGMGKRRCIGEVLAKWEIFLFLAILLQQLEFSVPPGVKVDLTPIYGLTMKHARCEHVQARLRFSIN

A further series addresses Cytochrome P450 2C9 (Homo sapiens, UniProt P11712).
The next series concerns the target Cytochrome P450 3A4 (Homo sapiens, UniProt P08684).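 Note: CYP3A4 tested as one member of a cytochrome P450 panel screen.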
The target in a further series is Cytochrome P450 2C19 (Homo sapiens, UniProt P33261). The series can be described thus: Cytochrome panel assay with activity outcomes. Panel member name: p450-cyp2c19 Compounds with AC50 equal or less than 10 uM are considered active. In kind it is functional.
Sequence of Cytochrome P450 2C19 (P33261 whole entry): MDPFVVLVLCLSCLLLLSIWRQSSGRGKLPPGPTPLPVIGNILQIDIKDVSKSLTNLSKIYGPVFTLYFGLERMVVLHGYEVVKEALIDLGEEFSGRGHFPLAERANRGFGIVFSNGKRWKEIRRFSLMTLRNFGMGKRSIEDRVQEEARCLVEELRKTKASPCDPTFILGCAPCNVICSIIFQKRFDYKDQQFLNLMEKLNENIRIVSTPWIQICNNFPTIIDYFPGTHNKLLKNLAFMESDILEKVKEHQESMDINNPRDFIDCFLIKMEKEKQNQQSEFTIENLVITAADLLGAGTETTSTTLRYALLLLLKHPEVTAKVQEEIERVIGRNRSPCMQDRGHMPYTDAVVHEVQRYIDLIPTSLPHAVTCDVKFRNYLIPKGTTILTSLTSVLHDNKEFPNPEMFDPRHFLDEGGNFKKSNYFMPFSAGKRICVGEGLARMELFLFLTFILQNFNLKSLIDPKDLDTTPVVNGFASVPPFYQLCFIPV
Series [10] addresses T7, Mitochondrial peptide methionine sulfoxide reductase (Bos taurus, UniProt P54149).
T7 sequence (P54149 whole entry): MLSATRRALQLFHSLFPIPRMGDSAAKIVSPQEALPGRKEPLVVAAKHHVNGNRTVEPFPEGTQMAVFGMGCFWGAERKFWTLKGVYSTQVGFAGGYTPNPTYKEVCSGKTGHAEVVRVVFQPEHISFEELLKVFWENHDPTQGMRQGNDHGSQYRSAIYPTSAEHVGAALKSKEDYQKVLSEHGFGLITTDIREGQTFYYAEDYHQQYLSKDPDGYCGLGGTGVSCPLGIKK
In kind it is functional.

Sequence of Cytochrome P450 2C9 (P11712 whole entry): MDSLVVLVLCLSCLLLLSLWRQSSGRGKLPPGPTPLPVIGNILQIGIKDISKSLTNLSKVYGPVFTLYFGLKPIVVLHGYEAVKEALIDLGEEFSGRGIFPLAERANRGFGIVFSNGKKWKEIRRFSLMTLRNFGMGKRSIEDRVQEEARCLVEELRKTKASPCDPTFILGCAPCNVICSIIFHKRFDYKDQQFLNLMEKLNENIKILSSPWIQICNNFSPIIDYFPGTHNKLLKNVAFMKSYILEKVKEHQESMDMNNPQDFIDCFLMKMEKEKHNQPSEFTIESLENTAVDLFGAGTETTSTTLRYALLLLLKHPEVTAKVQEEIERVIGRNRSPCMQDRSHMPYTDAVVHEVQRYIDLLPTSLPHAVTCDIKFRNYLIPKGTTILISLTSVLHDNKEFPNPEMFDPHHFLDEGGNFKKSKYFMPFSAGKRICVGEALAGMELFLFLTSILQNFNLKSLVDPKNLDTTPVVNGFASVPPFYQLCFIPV
Sequence of Cytochrome P450 3A4 (P08684 whole entry): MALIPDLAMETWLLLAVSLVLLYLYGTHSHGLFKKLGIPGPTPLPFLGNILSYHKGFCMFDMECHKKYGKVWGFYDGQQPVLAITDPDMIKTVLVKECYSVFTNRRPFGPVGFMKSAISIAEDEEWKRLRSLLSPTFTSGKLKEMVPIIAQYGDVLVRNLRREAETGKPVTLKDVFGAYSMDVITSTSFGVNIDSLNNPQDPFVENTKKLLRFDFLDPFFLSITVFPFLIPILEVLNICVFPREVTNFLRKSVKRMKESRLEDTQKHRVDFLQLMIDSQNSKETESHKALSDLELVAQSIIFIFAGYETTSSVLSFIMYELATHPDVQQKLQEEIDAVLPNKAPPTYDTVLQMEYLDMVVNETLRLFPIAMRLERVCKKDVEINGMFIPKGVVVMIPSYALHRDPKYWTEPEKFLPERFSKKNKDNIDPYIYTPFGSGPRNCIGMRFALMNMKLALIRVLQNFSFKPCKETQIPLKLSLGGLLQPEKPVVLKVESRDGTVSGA

Regarding `CC(C)(C)C(=O)CSc1ncnc2sc3c(c12)CCC3`, the half-maximal inhibitory concentration (IC50) at Phospholipase A2 is 2.59 µM (active).
Regarding `CC(C)C(=O)Nc1ccc2nn(-c3ccccc3)nc2c1`, the IC50 on Caspase-3 is 26.7 µM (active); in series [1] it was > 100 µM (inactive); in series [2], > 100 µM (inactive); in series [3] it was 8.73 µM (active).
Regarding `COc1ccc(S(=O)(=O)N2CCCC2)c(Cl)c1Cl`, the figures for the AC50 in the series on Escherichia coli [4] and in the series on Escherichia coli [5] were 71.3 µM (active) and 37.7 µM (active), respectively.
With `c1ccc(-c2cn3c4c(sc3n2)CCCC4)cc1`, the AC50 is 2.07 µM (active) in the series with HEK293 (hek293) and 47.1 µM (active) in [8]. Besides, the half-maximal effective concentration (EC50) in [6] is 6.38 µM (active); in series [7] it was 6.75 µM (active).
Take `N#CC1=C(N)N2C(=C(C#N)C1c1cccc(Br)c1)Nc1ccccc12` (centres undefined): the AC50 with HEK293 (Homo sapiens, HEK293) was 3.62 µM (active); in [8], 54 µM (active). Besides, the EC50 in series [6] is 12.9 µM (active); in series [9], 11.3 µM (active); in [7], 14.6 µM (active).
Regarding `C[C@H]1c2cccc(O)c2C(=O)C2=C(O)C3(O)C(O)=C(C(N)=O)C(=O)[C@@H](N(C)C)[C@@H]3[C@@H](O)[C@@H]21` (some centres undefined), the AC50 with Escherichia coli [4] was 30 µM (active); in the series with Escherichia coli [5], 1.13 µM (active).
In the case of `Cc1ccccc1-c1nc2cc(Cl)ccc2o1`, the half-maximal inhibitory concentration (IC50) at Caspase-3 is 12.9 µM (active); in [1], 13.7 µM (active); in [2], 79.7 µM (active); in series [3], 4.69 µM (active).
On to `Cn1cccc1C(=O)N1CCC2(CC1)CN(c1cccc(-c3ccccc3)c1)C2`, for which the AC50 on Cytochrome P450 1A2 was 25.1 µM (inconclusive); at Cytochrome P450 2C9 it was “inconclusive”; at Cytochrome P450 3A4, “inconclusive”; on Cytochrome P450 2C19 (read-out: AC50) it was 39.8 µM (inconclusive).
`Cc1cc(C)n(-c2ccc(NC(=O)C3CCN(Cc4ccccn4)CC3)cc2)n1`: the AC50 with Escherichia coli [4] was 39.4 µM (active); in the series with Escherichia coli [5] it was 51.6 µM (active).
In the case of `CCOP(=O)(Nc1ccc2c(c1)C(=NNC(N)=S)c1ccccc1-2)OCC`, the IC50 in series [10] is 95.9 µM (inactive).
As for `O=C(OCCCN1CCCCC1)c1ccc(O)cc1`, the AC50 entry on Cytochrome P450 2C9 and on Cytochrome P450 2C19 was “inconclusive” in each case.
Regarding `O=Cc1cc(OCc2ccccc2)ccc1[B-](F)(F)F`, the AC50 in the series with HEK293 (Homo sapiens, HEK293) is 2.86 µM (active); in [8], 1.14 µM (active).
With `CO[C@H]1/C=C/O[C@@]2(C)Oc3c(C)c(O)c4c(O)c(c(/C=N/N5CCN(C)CC5)c(O)c4c3C2=O)NC(=O)/C(C)=C\C=C\[C@H](C)[C@H](O)[C@@H](C)[C@@H](O)[C@@H](C)[C@H](OC(C)=O)[C@@H]1C` [RIFAMPIN], in the series on Escherichia coli [5], the AC50 is 32.3 µM (active).
